Measurements: PMC12040169 (PLOS Biology, 2025)

assay: in vitro; details: human, hela cells, % viability

Row | SMILES | viability at 28.5 h, 10 µM [%]
1 | [O-][n+]1cc(-c2ccccc2)[n+]([O-])c2c1CCCC2 [CBK264847] | 98.7
2 | Cc1cccc(C)c1NC(=O)C(=O)NCCCN1CCOCC1 [CBK264850] | 90.6
3 | CN1CCN(C(=O)Nc2ccc(Cc3ccc(NC(=O)N4CCN(C)CC4)cc3)cc2)CC1 [CBK264852] | 104
4 | Cc1cc(C)c(NC(=O)CSCC(=O)Nc2ccc3ccccc3c2)c(C)c1 [CBK264856] | 100
5 | O=C(CN1C(=O)C2C3c4ccccc4C(c4ccccc43)C2C1=O)OCC(=O)c1ccc(F)cc1 (stereo not drawn) [CBK264861] | 106
6 | COc1cccc(C2C(C(=O)c3ccc(Br)cc3)=C(O)C(=O)N2CCCN2CCOCC2)c1 (stereo not drawn) [CBK264862] | 103
7 | O=S(=O)(c1ccc(F)cc1)N1CCN(c2ncnc3scc(-c4ccccc4)c23)CC1 [CBK264864] | 103
8 | COc1ccc(C(=O)C2=C(O)C(=O)N(CCN(C)C)C2c2ccncc2)c(C)c1 (stereo not drawn) [CBK264867] | 92.5
9 | OCCCNC(=S)NCCc1ccccc1 [CBK264869] | 99.7
10 | Cc1ccc(NC(=S)NCCc2ccc(S(N)(=O)=O)cc2)c(C)c1 [CBK264870] | 93.9
11 | COc1cc(C2C(C(=O)c3cccs3)=C(O)C(=O)N2Cc2cccnc2)cc(OC)c1OC (stereo not drawn) [CBK264874] | 92.8
12 | COCCCN1C(=O)C(O)=C(C(=O)c2ccc(C)o2)C1c1ccc(Br)cc1 (stereo not drawn) [CBK264876] | 90.9
13 | Cc1cc(OCC(C)C)ccc1C(=O)C1=C(O)C(=O)N(Cc2cccnc2)C1c1cccnc1 (stereo not drawn) [CBK264883] | 97.6
14 | O=C(COc1ccc2ccccc2c1)Oc1ccc2ccccc2c1 [CBK264885] | 110
15 | CC(C)Oc1ccc(C(=O)C2=C(O)C(=O)N(CCN(C)C)C2c2ccccc2F)cc1 (stereo not drawn) [CBK264886] | 102
16 | Cc1cc(Cl)ccc1NC(=S)NCCc1ccc(S(N)(=O)=O)cc1 [CBK264888] | 88.5
17 | O=C1CC(c2ccccc2)CC(NCc2ccc3c(c2)OCO3)=C1C(=S)Nc1ccccc1 (stereo not drawn) [CBK264890] | 94.4
18 | COc1ccc(-n2c(SC(CN3CCCCC3)CN3CCCC3=O)nc3ccccc3c2=O)cc1 (stereo not drawn) [CBK264891C] | 87.8
19 | COCCCN1C(=O)C(O)=C(C(=O)c2ccc(Cl)cc2)C1c1cccc(O)c1 (stereo not drawn) [CBK264892] | 105
20 | CCN(CC)CCCNc1c([N+](=O)[O-])c(=O)n(C)c2ccccc12 [CBK264893] | 112
21 | CC(=O)Nc1sc(/C(C#N)=C/c2cccc(Oc3ccccc3)c2)nc1-c1ccc(C)cc1 [CBK264895] | 98.4
22 | COc1cccc(C2C(C(=O)c3ccc(C)o3)=C(O)C(=O)N2CCN2CCOCC2)c1 (stereo not drawn) [CBK264899] | 92.8
23 | COc1cccc(C2C(C(=O)c3ccc(Cl)cc3)=C(O)C(=O)N2CCN2CCOCC2)c1 (stereo not drawn) [CBK264901] | 90
24 | CC(C)CNC(=O)C(=O)NCCc1ccc(F)cc1 [CBK264903] | 105
25 | O=C(COc1ccc(Cl)cc1Cl)OCCNC1=NS(=O)(=O)c2ccccc21 [CBK264905] | 110
26 | CC(C)Oc1ccc(C(=O)C2=C(O)C(=O)N(CCN(C)C)C2c2ccncc2)cc1 (stereo not drawn) [CBK264907] | 90.3
27 | COc1cc(C(=O)Oc2cccc(Nc3ncnc4ccccc34)c2)cc(OC)c1OC [CBK264908] | 109

Row | SMILES | viability at 28.5 h, 10 µM [%]
28 | O=C(NCN1CCN(c2ccc([N+](=O)[O-])cc2)CC1)c1cccnc1 [CBK264909] | 106
29 | Cc1cccc(CN(CC(=O)Nc2ccc3c(c2)OCCO3)S(=O)(=O)c2ccc(Cl)cc2)c1 [CBK264910] | 91.9
30 | O=C(O)c1ccc(N2CCN(CCO)CC2)c([N+](=O)[O-])c1 [CBK264911C] | 100
31 | COc1cccc(-c2nc(SCC(=O)Nc3ccc([N+](=O)[O-])cc3)[nH]c(=O)c2C#N)c1 [CBK264912] | 105
32 | O=[N+]([O-])c1ccc(NC(=S)NCCCn2ccnc2)cc1 [CBK264915] | 93.3
33 | O=C(CSCc1ccccc1)Nc1ccc2c3c(cccc13)CC2 [CBK264916] | 107
34 | O=C1c2ccccc2CN1CCNS(=O)(=O)c1ccc2oc3ccccc3c2c1 [CBK264918] | 98.9
35 | Cc1cccc(NC(=S)N2CCN(Cc3ccc4c(c3)OCO4)CC2)c1C [CBK264919] | 82.7
36 | COc1cccc(C2C(C(=O)c3ccc(Br)cc3)=C(O)C(=O)N2CCCN(C)C)c1 (stereo not drawn) [CBK264921] | 84.5
37 | O=C(Oc1ccc(F)cc1C(=O)/C=C/c1cccs1)c1ccc([N+](=O)[O-])cc1 [CBK264925] | 91.2
38 | S=C(NCCc1ccccc1)NCCN1CCOCC1 [CBK264929] | 87.4
39 | O=C(NC(=S)Nc1ccc(-c2nc3ccccc3o2)c(O)c1)c1cncc(Br)c1 [CBK264931] | 97
40 | O=C(C1=C(O)C(=O)N(c2ncccn2)C1c1cccc([N+](=O)[O-])c1)c1ccc(F)cc1 (stereo not drawn) [CBK264932] | 85.2
41 | CCc1cccc2c(/C=C3/SC(=S)N(CC(=O)O)C3=O)c[nH]c12 [CBK264937] | 94
42 | Cc1[nH]nc(-c2ccc(OCc3cnn(-c4ccccc4)c3)cc2O)c1Oc1ccc(Cl)cc1 [CBK264939] | 86.8
43 | CCOC(=O)CC(=O)CSc1nc(N)c2c3c(sc2n1)CCCC3 [CBK264942] | 120
44 | O=C(NCCCNc1c(Cl)cccc1[N+](=O)[O-])c1ccc(F)cc1 [CBK264943] | 99.4
45 | CC(=O)Nc1ccc(S(=O)(=O)N2CCN(c3ccc([N+](=O)[O-])cc3C(F)(F)F)CC2)cc1 [CBK264944] | 112
46 | Cc1ccc(S(=O)(=O)NCCNc2ccc(C(F)(F)F)cc2[N+](=O)[O-])cc1 [CBK264945] | 90.4
47 | O=c1oc2c(CN3CCN(CCO)CC3)c(O)ccc2cc1-c1nc(-c2ccc(Br)cc2)cs1 [CBK264949] | 103
48 | COc1ccc(-c2nc3cc(NC(=O)c4ccccc4Br)ccc3o2)cc1 [CBK264953] | 95.5
49 | Cc1ccc(OCC(=O)NC(=S)Nc2cc(C(=O)O)ccc2C)cc1C [CBK264955] | 92.8
50 | COc1cc(C2NC(=O)NC(O)(C(F)(F)F)C2C(=O)c2ccccc2)ccc1OCc1ccccc1 (stereo not drawn) [CBK264957] | 114
51 | NS(=O)(=O)c1ccc(NS(=O)(=O)c2ccc(NC(=O)C3CC3)cc2)cc1 [CBK264958] | 103
52 | O=C(O)c1ccccc1NC(=S)NC(=O)c1ccccc1[N+](=O)[O-] [CBK264963] | 96.2
53 | Sc1nnc(COc2ccc(-c3ccccc3)cc2)n1-c1ccccc1 [CBK264964] | 105
54 | CC1CCN(S(=O)(=O)c2ccc(NC(=O)COc3ccc4ccccc4c3)cc2)CC1 [CBK264969] | 96.7

Row | SMILES | viability at 28.5 h, 10 µM [%]
55 | O=C(CC(C(=O)O)P(=O)(c1ccccc1)c1ccccc1)c1ccccc1 (stereo not drawn) [CBK264971] | 114
56 | CN(C)c1nc(Oc2ccc(OCCOc3ccccc3)nn2)nc(N(C)C)n1 [CBK264976] | 104
57 | CN(C)S(=O)(=O)c1ccc(C(=O)Nc2ccc(-c3ccccc3)cc2)cc1 [CBK264978] | 96.2
58 | CC1(C(=O)O)NC(c2ccccc2O)C2C(=O)N(c3ccccc3[N+](=O)[O-])C(=O)C21 (stereo not drawn) [CBK264979] | 107
59 | Cc1ccc(S(=O)(=O)Nc2nc(C)c(NC(=O)Nc3ccc(Cl)cc3Cl)s2)cc1 [CBK264982] | 85.8
60 | Cn1c(SCc2c(Cl)cccc2[N+](=O)[O-])nnc1-c1ccc(NC(=O)c2ccccc2Cl)cc1 [CBK264983] | 81.1
61 | COc1ccc(CCNC(=O)C2CCN(S(=O)(=O)c3ccccc3)CC2)cc1 [CBK264985] | 95
62 | CCOC(=O)Cc1cc(O)nc(NC(=N)Nc2ccc(C)cc2C)n1 [CBK264986] | 104
63 | O=c1c2ccccc2nc(CSc2[nH]cnc3ncnc2-3)n1-c1cccc(C(F)(F)F)c1 [CBK264991] | 105
64 | CC1CCN(S(=O)(=O)c2ccc(NC(=O)COc3ccc([N+](=O)[O-])cc3)cc2)CC1 [CBK264994] | 95.4
65 | Cc1ccc(S(=O)(=O)Nc2ccccn2)c(C)c1C [CBK264995] | 90
66 | Cc1ccc(C(=O)O)cc1NC(=S)NC(=O)c1ccc(-c2ccccc2)cc1 [CBK264997] | 92.7
67 | CCN(Cc1ccccc1)c1ccc(C2NC(=O)NC(O)(C(F)(F)F)C2C(=O)c2cccnc2)cc1 (stereo not drawn) [CBK264999] | 91.7
68 | Cc1ccc(OCC(=O)NC(=S)Nc2cc(C(=O)O)ccc2C)cc1 [CBK265000] | 96.8
69 | Cn1c(SCc2ccc([N+](=O)[O-])cc2)nnc1-c1ccc(NC(=O)c2ccccc2Cl)cc1 [CBK265001] | 111
70 | COc1ccc(-c2c(-c3ccc(OCc4cnn(-c5ccccc5)c4)c(C)c3O)n[nH]c2C)cc1 [CBK265006] | 92.5
71 | COC(=O)c1sc(NC(=O)c2cccnc2)c(C#N)c1C [CBK265007] | 89.4
72 | CC(C)(C)OC(=O)NCCC(=O)Oc1ccc2c3c(c(=O)oc2c1)CCCC3 [CBK265008] | 89.3
73 | O=[N+]([O-])c1cc(-c2nc(-c3cccs3)c(-c3cccs3)[nH]2)ccc1Br [CBK265009] | 102
74 | CN(C)S(=O)(=O)Nc1ccc(Cc2ccncc2)cc1 [CBK265011] | 115
75 | CCOC(=O)c1c(NC(=O)C2CCCN2S(=O)(=O)c2ccccc2)sc2c1CCCC2 (stereo not drawn) [CBK265012] | 92
76 | O=C(O)c1cccc(NC(=S)NC(=O)c2ccc(-c3ccc(Br)cc3)o2)c1 [CBK265014] | 95.6
77 | Nc1nc(-n2cnnc2)nn1-c1ccccc1 [CBK265015] | 97.2
78 | Cc1ccc(NC(=O)CN2C(=O)N/C(=C\c3cc(Br)cc(Cl)c3O)C2=O)cc1 [CBK265018] | 98.7
79 | Cc1n[nH]c(O)c1C(c1ccc(OC(=O)c2ccccc2)cc1)c1c(C)n[nH]c1O [CBK265019] | 109

same assay, conditions: human, hela cells, % viability, bulk resorufin, single well

Row | SMILES | viability at 28.5 h, 10 µM [%]
80 | C=CCN1C(=O)/C(=C/c2cc(Cl)c(OCc3cccc(C(=O)O)c3)c(OC)c2)C(=O)NC1=S [CBK264877G] | 121
81 | Cc1cccc(N2C(=O)NC(=O)C(CCc3ccncc3)(CCc3ccncc3)C2=O)c1 [CBK264898] | 96.3
